According to patent publication US20250136722A1, “CYTOTOXICITY TARGETING CHIMERAS” (GLAXOSMITHKLINE INTELLECTUAL PROPERTY DEVELOPMENT LIMITED, priority 2021, published 2025):
Values joined by “and” are separate entries in the source; they are usually repeats but may differ in a detail not shown here. Identical values can stand only once.

Columns and labels:
[1] = biological target: T1, CHOK1 cells engineered to overexpress human CCR2 (Homo sapiens, UniProt P41597); test: Antibody dependent cellular cytotoxicity (ADCC) reporter assay (Example 199); format: cell-based; details: with anti-cotinine antibody SEQ ID NO: 11/12; CHOK1-human CCR2 target cells, Jurkat FcγRIIIa NFAT-luciferase reporter cells; 12-18 hours; read-out: ADCC Reporter Assay pEC50 (converted)
T1 construct: expressed in transfected cells; host or cells: CHOK1 cells
Outline: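 CHOK1-hCCR2 target cells are co-incubated for 12–18 h with Jurkat FcγRIIIa/NFAT-luciferase reporter cells, ARM compound (1 pM–10 μM) and anti-cotinine antibody with a DE-mutant human IgG1 Fc (0.01–200 μg/mL). Luminescence is expressed as signal:background against no-compound wells; EC50 comes from nonlinear fit and is reported as pEC50, averaged across runs.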

[2] = biological target: Anti-cotinine antibody (SEQ ID NO: 11 / SEQ ID NO: 12, rabbit variable region with human IgG1 Fc domain); test: Binding of anti-cotinine antibody to ARM compounds by SPR, Biacore T200, 37° C. (Example 202); details: pH 7.4, rabbit variable region/human IgG1 Fc antibody captured on protein A
Method: Anti-cotinine antibodies having a heavy chain sequence of SEQ ID NO: 11 and a light chain sequence of SEQ ID NO: 12 (rabbit variable region with human IgG1 Fc domain containing a DE mutation (S239D/1332E)) were captured on one or more flow cells of a protein A sensor chip (Cytiva) using a Biacore T200 while reserving flow cell 1 as a reference. Following capture, a 3000 second wait step was included to reduce drift during compound analysis. ARM compounds of Formula (I) were then injected at 100 μL/min with 200 and 2000 second association and dissociation times. The entire experiment was run at 37° C. with running buffer containing 10 mM HEPES pH 7.4, 150 mM NaCl, 0.005% P20 and 1% DMSO. ARM compounds of Formula (I) were titrated with a top concentration of 200 nM using a 3-fold 5-point dilution series and a corresponding 5-injection buffer cycle was run for blank subtraction. Data were double referenced by subtracting the response of the reference flow cell from that of the antibody-containing flow cell and subsequently subtracting the referenced blank sensorgrams. Following compound analysis, the surface was regenerated using a 30 second injection of pH 1.5 glycine at a flow rate of 30 μL/min after which antibody was re-captured. The experiment was run using Biacore T200 control software and evaluated using Biacore T200 Evaluation software. Curves were fit with a 1:1 kinetic binding model to obtain kon(1/Ms), koff(1/s), Kd (M) determined as koff/kon, and residence time determined as 1/koff. (s).
Anti-cotinine antibody was tested for binding to ARMs compounds of Formula (I) of the invention in the above assay in or more experimental runs and the results are shown in Table 5 below. Affinity is reported as a pKd value. The pKd value is the negative log of the Kd value, wherein the Kd value is the dissociation constant measured in molar (M) as noted above. For compounds tested in more than one experimental run, the pKd value is reported as an average.

Row | SMILES | EC50 [1] | pKd of Antibody for ARM Compound of Formula (I) [2]
1 | CC(C)N(C)[C@@H]1CC[C@H](N2CC[C@H](Nc3ncnc4ccc(C(F)(F)F)cc34)C2=O)[C@H](Nc2c(NCCOCCOCCOCCOCCOCCNC(=O)[C@H]3CC(=O)N(C)[C@@H]3c3cccnc3)c(=O)c2=O)C1 [Example 85, (2S,3S)-N-(17-((2-(((1R,2S,5R)-5-(Isopropyl(methyl)amino)-2-((S)-2-oxo-3-((6-(trifluoromethyl)quinazolin-4-yl)amino)pyrrolidin-1-yl)cyclohexyl)amino)-3,4-dioxocyclobut-1-en-1-yl)amino)-3,6,9,12,15-pentaoxaheptadecyl)-1-methyl-5-oxo-2-(pyridin-3-yl)pyrrolidine-3-carboxamide] | 8.24 nM | 9.6885
2 | CC(C)N(C)[C@@H]1CC[C@H](N2CC[C@H](Nc3ncnc4ccc(C(F)(F)F)cc34)C2=O)[C@H](NC(=O)[C@H]2CC[C@@H](NC(=O)CCOCCNC(=O)COCCNC(=O)[C@H]3CC(=O)N(C)[C@@H]3c3cccnc3)CC2)C1 [Example 98, (2S,3S)-N-(2-(2-((2-(3-(((1S,4s)-4-(((1R,2S,5R)-5-(Isopropyl(methyl)amino)-2-((S)-2-oxo-3-((6-(trifluoromethyl)quinazolin-4-yl)amino)pyrrolidin-1-yl)cyclohexyl)carbamoyl)cyclohexyl)amino)-3-oxopropoxy)ethyl)amino)-2-oxoethoxy)ethyl)-1-methyl-5-oxo-2-(pyridin-3-yl)pyrrolidine-3-carboxamide] | 1 nM and 0.631 nM | 9.0095
3 | CN1C(=O)C[C@H](C(=O)NCCOCC(=O)NCCOCC(=O)NCCOCCC(=O)N[C@@H]2C[C@H](NC(C)(C)C)CC[C@@H]2N2CC[C@H](Nc3ncnc4ccc(C(F)(F)F)cc34)C2=O)[C@H]1c1cccnc1 [Example 103] | 1.56 nM and 0.577 nM | 9.0985
4 | CC(C)N(C)[C@@H]1CC[C@H](N2CC[C@H](Nc3ncnc4ccc(C(F)(F)F)cc34)C2=O)[C@H](NC(=O)COCCNC(=O)CCOCCNC(=O)COCCNC(=O)[C@H]2CC(=O)N(C)[C@@H]2c2cccnc2)C1 [Example 104, (2S,3S)-N-(18-(((1R,2S,5R)-5-(Isopropyl(methyl)amino)-2-((S)-2-oxo-3-((6-(trifluoromethyl)quinazolin-4-yl)amino)pyrrolidin-1-yl)cyclohexyl)amino)-5,12,18-trioxo-3,9,16-trioxa-6,13-diazaoctadecyl)-1-methyl-5-oxo-2-(pyridin-3-yl)pyrrolidine-3-carboxamide] | 2.28 nM | 9.051
5 | CC(C)N(C)[C@@H]1CC[C@H](N2CC[C@H](Nc3ncnc4ccc(C(F)(F)F)cc34)C2=O)[C@H](NC(=O)CCOCCNC(=O)[C@H]2CC[C@H](NC(=O)COCCNC(=O)[C@H]3CC(=O)N(C)[C@@H]3c3cccnc3)CC2)C1 [Example 108] | 0.0501 nM | 8.9855
6 | CC(C)N(C)[C@@H]1CC[C@H](N2CC[C@H](Nc3ncnc4ccc(C(F)(F)F)cc34)C2=O)[C@H](NC(=O)COCCNC(=O)[C@H]2CC[C@@H](NC(=O)CCOCCNC(=O)[C@H]3CC(=O)N(C)[C@@H]3c3cccnc3)CC2)C1 [Example 109] | 0.17 nM | 8.951
7 | CC(C)N(C)[C@@H]1CC[C@H](N2CC[C@H](Nc3ncnc4ccc(C(F)(F)F)cc34)C2=O)[C@H](NC(=O)CCOCCNC(=O)[C@H]2CC[C@@H](NC(=O)CCOCCNC(=O)[C@H]3CC(=O)N(C)[C@@H]3c3cccnc3)CC2)C1 [Example 110] | 0.167 nM | 8.9085
8 | CC(C)N(C)[C@@H]1CC[C@H](N2CC[C@H](Nc3ncnc4ccc(C(F)(F)F)cc34)C2=O)[C@H](NC(=O)[C@H]2CC[C@@H](NC(=O)CCO[C@H]3CC[C@H](OCCNC(=O)[C@H]4CC(=O)N(C)[C@@H]4c4cccnc4)CC3)CC2)C1 [Example 112, (2S,3S)-N-(2-(((1S,4S)-4-(3-(((1S,4S)-4-(((1R,2S,5R)-5-(Isopropyl(methyl)amino)-2-((S)-2-oxo-3-((6-(trifluoromethyl)quinazolin-4-yl)amino)pyrrolidin-1-yl)cyclohexyl)carbamoyl)cyclohexyl)amino)-3-oxopropoxy)cyclohexyl)oxy)ethyl)-1-methyl-5-oxo-2-(pyridin-3-yl)pyrrolidine-3-carboxamide] | 0.398 nM | 9.343
9 | CC(C)N(C)[C@@H]1CC[C@H](N2CC[C@H](Nc3ncnc4ccc(C(F)(F)F)cc34)C2=O)[C@H](NC(=O)[C@H]2CC[C@H](NC(=O)CCO[C@H]3CC[C@H](OCCNC(=O)[C@H]4CC(=O)N(C)[C@@H]4c4cccnc4)CC3)CC2)C1 [Example 113] | 4.82 nM and 8.17 nM | 9.767
10 | CC(C)N(C)[C@@H]1CC[C@H](N2CC[C@H](Nc3ncnc4ccc(C(F)(F)F)cc34)C2=O)[C@H](NC(=O)[C@H]2C[C@@H](NC(=O)CCO[C@H]3CC[C@H](OCCNC(=O)[C@H]4CC(=O)N(C)[C@@H]4c4cccnc4)CC3)C2)C1 [Example 115] | 0.408 nM and 0.305 nM | 9.363
11 | CC(C)N(C)[C@@H]1CC[C@H](N2CC[C@H](Nc3ncnc4ccc(C(F)(F)F)cc34)C2=O)[C@H](NC(=O)CCOCCOCCNC(=O)NCCOCCOCCNC(=O)[C@H]2CC(=O)N(C)[C@@H]2c2cccnc2)C1 [Example 119, (2S,3S)-N-(20-(((1R,2S,5R)-5-(Isopropyl(methyl)amino)-2-((S)-2-oxo-3-((6-(trifluoromethyl)quinazolin-4-yl)amino)pyrrolidin-1-yl)cyclohexyl)amino)-10,20-dioxo-3,6,14,17-tetraoxa-9,11-diazaicosyl)-1-methyl-5-oxo-2-(pyridin-3-yl)pyrrolidine-3-carboxamide] | 1.58 nM | 9.1735
12 | CC(C)N(C)[C@@H]1CC[C@H](N2CC[C@H](Nc3ncnc4ccc(C(F)(F)F)cc34)C2=O)[C@H](NC(=O)[C@H]2CC[C@H](NC(=O)CCCOCCCCOCCNC(=O)[C@H]3CC(=O)N(C)[C@@H]3c3cccnc3)CC2)C1 [Example 121, (2S,3S)-N-(2-(4-(4-(((1R,4r)-4-(((1R,2S,5R)-5-(Isopropyl(methyl)amino)-2-((S)-2-oxo-3-((6-(trifluoromethyl)quinazolin-4-yl)amino)pyrrolidin-1-yl)cyclohexyl)carbamoyl)cyclohexyl)amino)-4-oxobutoxy)butoxy)ethyl)-1-methyl-5-oxo-2-(pyridin-3-yl)pyrrolidine-3-carboxamide] | 5.28 nM | 9.332
13 | CC(C)N(C)[C@@H]1CC[C@H](N2CC[C@H](Nc3ncnc4ccc(C(F)(F)F)cc34)C2=O)[C@H](NC(=O)CCNC2CCC3(CC2)CCN(CCCNC(=O)[C@H]2CC(=O)N(C)[C@@H]2c2cccnc2)CC3)C1 [Example 138, (2S,3S)-N-(3-(9-((3-(((1R,2S,5R)-5-(Isopropyl(methyl)amino)-2-((S)-2-oxo-3-((6-(trifluoromethyl)quinazolin-4-yl)amino)pyrrolidin-1-yl)cyclohexyl)amino)-3-oxopropyl)amino)-3-azaspiro[5.5]undecan-3-yl)propyl)-1-methyl-5-oxo-2-(pyridin-3-yl)pyrrolidine-3-carboxamide] | 3.98 nM | 9.0865
